From the supplement of paper PMC8671470

How the values were obtained:
Details in all cases: 72 h
THP-1 [1] = assay: cell viability (% survival relative to DMSO control, bortezomib = 0%); higher = less cytotoxic
Summary of the method: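 Fifteen myeloid leukaemia cell lines were exposed to compounds at 1, 10, 100, 1000 or 10000 nM in 384-well plates for 72 h at 37 °C and 5% CO2. Viability was read by CellTiter-Glo luminescence and normalised, with vehicle as 100% and a 10 µM positive control as 0%. Values are percent survival averaged over duplicates.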

ML-2 = test system: ML-2
Summary of the method: (§1)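 Fifteen myeloid leukaemia cell lines were seeded in RPMI 1640 at a density titrated to the linear growth range. Each line went into 384-well plates with compounds acoustically pre-printed at five tenfold doses from 1 to 10,000 nM, in duplicate, and was incubated for 72 h at 37 °C with 5% CO2. Luminescent ATP viability was normalised to vehicle and to a positive control at 10 µM. The IC50 came from four-parameter log-logistic dose–response fits.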

KG-1 = test system: KG-1
Summary of the method: as §1

HEL = test system: HEL
Summary of the method: as §1

BV-173 = test system: BV-173
Summary of the method: as §1

KCL-22 = test system: KCL-22
Summary of the method: as §1

KU-812 = test system: KU-812
Summary of the method: as §1

MV4-11 = test system: MV4-11
Summary of the method: as §1

HL-60 = test system: HL-60
Summary of the method: as §1

SHI-1 = test system: SHI-1
Summary of the method: as §1

NOMO-1 = test system: NOMO-1
Summary of the method: as §1

K-562 = test system: K-562
Summary of the method: as §1

Mono-Mac-6 = test system: Mono-Mac-6
Summary of the method: as §1

THP-1 [2] = test system: THP-1
Summary of the method: as §1

LAMA-84 = test system: LAMA-84
Summary of the method: as §1

MOLM-13 = test system: MOLM-13
Summary of the method: as §1

Row | SMILES | cell viability (THP-1 [1]; 1 nM) [%] | cell viability (THP-1 [1]; 10 nM) [%] | cell viability (THP-1 [1]; 100 nM) [%] | cell viability (THP-1 [1]; 1000 nM) [%] | cell viability (THP-1 [1]; 10000 nM) [%] | IC50 (cell viability) (ML-2) [µM] | IC50 (cell viability) (KG-1) [µM] | IC50 (cell viability) (HEL) [µM] | IC50 (cell viability) (BV-173) [µM] | IC50 (cell viability) (KCL-22) [µM] | IC50 (cell viability) (KU-812) [µM] | IC50 (cell viability) (MV4-11) [µM] | IC50 (cell viability) (HL-60) [µM] | IC50 (cell viability) (SHI-1) [µM] | IC50 (cell viability) (NOMO-1) [µM] | IC50 (cell viability) (K-562) [µM] | IC50 (cell viability) (Mono-Mac-6) [µM] | IC50 (cell viability) (THP-1 [2]) [µM] | IC50 (cell viability) (LAMA-84) [µM] | IC50 (cell viability) (MOLM-13) [µM]
1 | Clc1ccc2c(c1Cl)CNCC2 | 98.8 | 99.4 | 99.7 | 105 | 90.5 | > 10 | > 10 | > 10 | > 10 | > 10 | > 10 | > 10 | > 10 | > 10 | > 10 | > 10 | > 10 | > 10 | > 10 | > 10
2 | O=C(O)C(S)=Cc1c[nH]c2ccc(F)cc12 | 99.1 | 97.6 | 98 | 113 | 101 | > 10 | > 10 | > 10 | > 10 | > 10 | > 10 | > 10 | > 10 | > 10 | > 10 | > 10 | > 10 | > 10 | > 10 | > 10
3 | CC(C)Cc1sc(N)nc1-c1ccc(P(=O)(O)O)o1 | 107 | 103 | 98.3 | 104 | 95.5 | > 10 | > 10 | > 10 | > 10 | > 10 | > 10 | > 10 | > 10 | > 10 | > 10 | > 10 | > 10 | > 10 | > 10 | > 10
4 | Cl.OC[C@H]1NC[C@@H](O)[C@@H](O)[C@@H]1O [1-Deoxymannojirimycin hydrochloride] | 107 | 91 | 98 | 102 | 91.9 | > 10 | > 10 | > 10 | > 10 | > 10 | > 10 | > 10 | > 10 | > 10 | > 10 | > 10 | > 10 | > 10 | > 10 | > 10
5 | CN(C)c1nc(O)c2[nH]cnc2n1 [2-Dimethylamino-6-hydroxypurine] | 95.1 | 94.5 | 86.6 | 97.3 | 97.3 | > 10 | > 10 | > 10 | > 10 | > 10 | > 10 | > 10 | > 10 | > 10 | > 10 | > 10 | > 10 | > 10 | > 10 | > 10
6 | O=C(O)c1cc2sccc2[nH]1 [4H-thieno[3,2-b]pyrrole-5-carboxylic acid] | 105 | 102 | 106 | 97.7 | 105 | > 10 | > 10 | > 10 | > 10 | > 10 | > 10 | > 10 | > 10 | > 10 | > 10 | > 10 | > 10 | > 10 | > 10 | > 10
7 | [N-]=[N+]=CC(=O)CC[C@H](N)C(=O)O [6-Diazo-5-oxo-L-norleucine] | 98.1 | 96.7 | 100 | 102 | 106 | > 10 | > 10 | > 10 | > 10 | > 10 | > 10 | > 10 | > 10 | > 10 | > 10 | > 10 | > 10 | > 10 | > 10 | > 10
8 | Sc1ncnc2nc[nH]c12 [6-mercaptopurine] | 98.3 | 106 | 98.1 | 90.6 | 85.2 | 1.1 | > 10 | 1.91 | 0.527 | 1.01 | 2.51 | 0.332 | 0.964 | 1.52 | 0.441 | 0.732 | 1.03 | > 10 | 1.33 | 0.907
9 | O=C(O)CC[C@H](NC(=O)c1ccc([N+](=O)[O-])cc1)C(=O)O [(S)-2-(4-Nitrobenzamido)pentanedioic acid] | 102 | 107 | 93.7 | 105 | 95.5 | > 10 | > 10 | > 10 | > 10 | > 10 | > 10 | > 10 | > 10 | > 10 | > 10 | > 10 | > 10 | > 10 | > 10 | > 10
10 | O=C1Nc2ccccc2/C1=C\NCCc1ccc(O)c(O)c1 [AC1NZZMF] | 108 | 103 | 100 | 108 | 79.9 | > 10 | > 10 | > 10 | > 10 | > 10 | > 10 | > 10 | > 10 | > 10 | > 10 | > 10 | > 10 | > 10 | > 10 | > 10
11 | Cc1ccc(S(=O)(=O)NC2c3ccccc3Oc3ccccc32)cc1 [AH-7614] | 96.9 | 96.7 | 99 | 96.7 | 100 | > 10 | > 10 | > 10 | > 10 | > 10 | > 10 | > 10 | > 10 | > 10 | > 10 | > 10 | > 10 | > 10 | > 10 | > 10
12 | C[C@]12CC[C@H](O)CC1=CC[C@@H]1[C@@H]2CC[C@]2(C)C(c3cccnc3)=CC[C@@H]12 [Abiraterone] | 99.4 | 102 | 104 | 113 | 108 | > 10 | > 10 | > 10 | > 10 | > 10 | > 10 | > 10 | > 10 | > 10 | > 10 | > 10 | > 10 | > 10 | > 10 | > 10
13 | O=C(COc1ccc(C(=O)c2ccccc2)cc1)NC1CCN(Cc2ccccc2)CC1 [AdipoRon] | 96.2 | 98.8 | 102 | 91.6 | 104 | > 10 | 9.73 | > 10 | 7.82 | > 10 | 8.38 | > 10 | > 10 | > 10 | > 10 | > 10 | > 10 | > 10 | > 10 | > 10
14 | CCOC(=O)[C@H]1O[C@@H]1C(=O)N[C@@H](CC(C)C)C(=O)NCCC(C)C [Aloxistatin] | 104 | 110 | 96.9 | 95.2 | 95.7 | > 10 | > 10 | > 10 | > 10 | > 10 | > 10 | > 10 | > 10 | > 10 | 5.52 | > 10 | > 10 | > 10 | > 10 | > 10
15 | N[C@](CCCCB(O)O)(CCN1CCCCC1)C(=O)O [Arginase inhibitor 1] | 105 | 88.6 | 101 | 99 | 102 | > 10 | > 10 | > 10 | > 10 | > 10 | > 10 | > 10 | > 10 | > 10 | > 10 | > 10 | > 10 | > 10 | > 10 | > 10
16 | Cc1noc2c1-c1ccccc1C(c1ccc(Cl)cc1)=N[C@H]2CC(N)=O [CPI-0610] | 103 | 95.9 | 88.6 | 51.1 | 40.2 | 1.26 | 0.135 | 1.52 | 0.538 | 0.624 | 0.422 | 0.146 | 0.2 | 0.5 | 0.349 | 0.377 | 0.142 | 0.765 | 1.59 | 0.274
17 | Nc1ccn([C@@H]2O[C@H](CO)[C@@H](O)[C@@H]2O)c(=O)n1 [Cytarabine] | 103 | 104 | 89.9 | 91.7 | 23.8 | 0.0681 | 0.116 | 0.0478 | 0.00472 | 0.0389 | 0.034 | 0.566 | 0.43 | 0.135 | 2.29 | 0.092 | 0.364 | 4.77 | 0.0585 | 0.0806
18 | CCOc1ccc(Cc2cc([C@@H]3O[C@H](CO)[C@@H](O)[C@H](O)[C@H]3O)ccc2Cl)cc1 [Dapagliflozin] | 88.4 | 100 | 86.4 | 101 | 90.1 | > 10 | > 10 | > 10 | > 10 | > 10 | > 10 | > 10 | > 10 | > 10 | > 10 | > 10 | > 10 | > 10 | > 10 | > 10
19 | CCN(CC)CCN(Cc1ccc(-c2ccc(C(F)(F)F)cc2)cc1)C(=O)Cn1c(SCc2ccc(F)cc2)nc(=O)c2c1CCC2 [Darapladib] | 107 | 98.8 | 100 | 96.3 | -0.44 | 2.62 | 2.42 | 2.63 | 2.15 | 2.32 | 1.98 | 3.36 | 2.07 | 2.59 | 2.82 | 1.64 | 2.9 | 2.94 | 2.23 | 2.15
20 | O=C(O)C(Cl)Cl [Dichloroacetate] | 100 | 98 | 103 | 95.8 | 102 | > 10 | > 10 | > 10 | > 10 | > 10 | > 10 | > 10 | > 10 | > 10 | > 10 | > 10 | > 10 | > 10 | > 10 | > 10
21 | O=C1Oc2ccccc2C(=O)C1CC1C(=O)Oc2ccccc2C1=O (stereo not given) [Dicumarol] | 100 | 102 | 96.3 | 103 | 94.2 | > 10 | > 10 | > 10 | > 10 | > 10 | > 10 | > 10 | > 10 | > 10 | > 10 | > 10 | > 10 | > 10 | > 10 | > 10
22 | CC12CCC(O)CC1CCC1C2CCC2(C)C(C3=CC(=O)OC3)CCC12O (stereo not given) [Digitoxigenin] | 108 | 104 | 77 | 18.9 | -0.987 | 0.35 | 0.264 | 0.336 | 0.24 | 0.331 | 0.368 | 0.323 | 0.338 | 0.358 | 0.437 | 0.184 | 0.213 | 0.286 | 0.234 | 0.122
23 | C[C@H]1O[C@@H](O[C@H]2[C@@H](O)C[C@H](O[C@H]3[C@@H](O)C[C@H](O[C@H]4CC[C@@]5(C)[C@H](CC[C@@H]6[C@@H]5C[C@@H](O)[C@]5(C)[C@@H](C7=CC(=O)OC7)CC[C@]65O)C4)O[C@@H]3C)O[C@@H]2C)C[C@H](O)[C@@H]1O [Digoxin] | 85.8 | 95.6 | 32.6 | 0.766 | -0.172 | 0.0386 | 0.0639 | 0.102 | 0.0361 | 0.0555 | 0.0647 | 0.0402 | 0.0342 | 0.0453 | 0.123 | 0.0855 | 0.0424 | 0.0752 | 0.0546 | 0.034
24 | O=c1c2ccccc2[se]n1-c1ccccc1 [Ebselen] | 94.9 | 95.1 | 93 | 98.7 | 81.8 | > 10 | > 10 | > 10 | > 10 | > 10 | > 10 | > 10 | > 10 | > 10 | > 10 | > 10 | > 10 | > 10 | > 10 | > 10
25 | Clc1ccc(COC(Cn2ccnc2)c2ccc(Cl)cc2Cl)cc1 (stereo not given) [Econazole] | 102 | 94.9 | 95.7 | 87.9 | 62 | 8.94 | 6.84 | > 10 | 2.28 | 6.71 | 7.24 | 1.08 | 3.64 | > 10 | > 10 | 2.39 | > 10 | > 10 | > 10 | 0.925
